From patent US8034791B2, “Activation of Egr-1 promoter by DNA damaging chemotherapeutics” (The University of Chicago, priority 2001, dated 2011)
Where two headings read alike, the source gives them in different places.

Experiments:
PC-3 cells [1] = assay: Preliminary in vitro TNF-α induction, PC-3 cells; format: cell-based, human; settings: vector treated PC-3 cells (100 MOI), 24 hrs; cisplatin 250 μM, doxorubicin 3 μM, 5-FU 20 mM, paclitaxel 14 μM
Protocol: (§1) In vitro measurement of TNF-α protein. PC-3 and PROb cells were plated in 96-well plates, grown overnight, and infected with Ad.Egr.TNF at 100 multiplicities of infection, incubated for three hrs, and were then treated with cisplatin (250 μM), doxorubicin (3 μM), 5-FU (20 mM) or paclitaxel (14 μM). Supernatants were harvested 24 hrs later and human TNF-α production was quantified by ELISA. Experiments were performed in quintuplicate.

PC-3 xenografts [2] = format: in vivo, athymic nude mice; settings: vector + IP agent days 1 and 2, cisplatin 9, cyclophosphamide 160, doxorubicin 15, 5-FU 100, gemcitabine 500 mg/kg
Protocol: (§2) Saline or chemotherapeutic agents administered IP on days 1 and 2, including 9 mg/kg cisplatin, 160 mg/kg cyclophosphamide, 15 mg/kg doxorubicin, 100 mg/kg 5-FU and 500 mg/kg gemcitabine. Animals were euthanized, and xenografts were harvested 24 hrs after the second IP injection. Xenografts were snap-frozen in liquid nitrogen and homogenized in RIPA buffer (150 mM NaCl, 10 mM Tris pH 7.5, 5 mM EDTA pH 7.5, 100 mM PMSF, 1 µg/ml leupeptin and 2 μg/ml aprotinin) using a Brinkman Polytron homogenizer (Kinematica AG, Lucerne, Switzerland). After three freeze-thaw lysis cycles, the homogenate was centrifuged at 7800×g in a Sorvall RC-5C SS34 rotor (Kendro Laboratory Products, Newtown, Conn.) for 10 min at 4° C. TNF-α levels in the supernatants were measured by ELISA as described above.

PC-3 cells [3] = assay: Chemo-sensitivity by MTS assay, PC-3 cells; format: cell-based, human; settings: PC-3, Ad.Egr-TNF.11D and chemotherapy 24 hrs
Protocol: (§3) Chemo-sensitivity of PC-3 and PROb cells as determined by MTS assay. PC-3 and PROb cells were plated at a density of 10^5 cells/100 μl medium in 96-well tissue culture plates and incubated overnight. […] After incubation, 200 μl of complete media, with or without chemotherapeutic agents, was added. Chemotherapeutic agents used were at final concentrations of cisplatin at 46 and 460 μM, doxorubicin at 3 and 300 μM, 5-fluorouracil at 2 and 200 mM and paclitaxel at 1.4 and 140 μM. Media was removed 24 hrs later and each well was rinsed with 200 μl of complete media (CM) and aspirated. 100 μl of CM was then added with 20 μl of CellTiter 96® Aqueous One Solution Cell Proliferation Assay solution (Promega, Madison, Wis.), and the cells were allowed to incubate for 1 hr. Absorbance was measured at 490-650 nm.

PROb cells [4] = assay: Chemo-inducibility of Ad.Egr-TNF.11D in vitro, PROb cells; format: cell-based, rat
Protocol: (§4) PC-3 and PROb cells were plated, infected with Ad.Egr.TNF, and incubated as discussed above. After incubation, 200 μl of CM, with or without chemotherapeutic agents, including cisplatin (250 μM), doxorubicin (3 μM), 5-fluorouracil (100 mM), gemcitabine (3 mM) and paclitaxel (14 μM) were added. Conditioned medium was harvested 24 hrs. later, and TNF-α concentration was measured (Quantikine Human TNF-α ELISA kit, R & D Systems, Minneapolis, Minn.).

PC-3 xenografts [5] = format: in vivo, nude mice; settings: IT vector 5×10^9 p.u. + IP agent vs vector and NS, cisplatin 9, cyclophosphamide 160, doxorubicin 15, 5-FU 100 mg/kg
Protocol: (§5) In vivo measurement of TNF-α protein. PC-3 (1×10^7 cells) or PROb cells (5×10^6) in 100 μl PBS were injected subcutaneously into the right hind limb of nude mice. Tumor-bearing mice received IT Ad.Egr.TNF (5×10^9 p.u. in 10 μl) with 250 μl of complete media with NS or a chemotherapeutic agent, including cisplatin (9 mg/kg), cyclophosphamide (160 mg/kg), doxorubicin (15 mg/kg), 5-fluorouracil (100 mg/kg) and gemcitabine (500 mg/kg). Each mouse IP injections were administered 20 hrs after transfection, and two consecutive IT and IP injections were given. Animals were euthanized, and xenografts were harvested 48 hrs after the second IP injection. Xenografts were snap-frozen in liquid nitrogen and homogenized in RIPA buffer (150 mM NaCl, 10 mM Tris at pH 7.5, 5 mM EDTA at pH 7.5, 100 mM PMSF, 1 μg/ml leupeptin and 2 μg/ml aprotinin). After three freeze-thaw lysis cycles, the homogenate was centrifuged for 10 minutes at 4° C. TNF-α levels in the supernatants were measured as described above.

PROb xenografts [6] = format: in vivo, nude mice; settings: IT vector 5×10^9 p.u. + IP agent vs vector plus NS, cisplatin 9, cyclophosphamide 160, doxorubicin 15, 5-FU 100, gemcitabine 500 mg/kg
Protocol: as §5

PROb xenografts [7] = settings: for induction of TNF-α protein: PROb xenografts, vector + IP agent vs vector alone, cisplatin 9, cyclophosphamide 160, doxorubicin 15, 5-FU 100, gemcitabine 500 mg/kg
Protocol: as §2

PROb cells [8] = assay: Chemo-sensitivity by MTS assay, PROb cells; format: cell-based, rat; settings: Ad.Egr-TNF.11D and chemotherapy 24 hrs
Protocol: as §3

PROb cells [9] = assay: Preliminary in vitro TNF-α induction, PROb cells; format: cell-based, rat; settings: PROb cells treated with Ad.TNF (100 MOI), 24 hrs; cisplatin 250 μM, doxorubicin 3 μM, 5-FU 20 mM, paclitaxel 14 μM
Protocol: as §1

PC-3 cells [10] = assay: Chemo-inducibility of Ad.Egr-TNF.11D in vitro, PC-3 cells
Protocol: as §4

PC-3 cells [11] = assay: N-acetyl cysteine effects on TNF-α production in vitro, PC-3 cells; format: cell-based, human
Protocol: (§6) N-acetyl cysteine effects on TNF-α production in vitro. PC-3 and PROb cells were plated and infected with Ad.Egr-TNF.11D as described above. PC-3 and PROb cells were treated with NAC at 0 mM, 10 mM, 20 mM and 30 mM, followed immediately by the addition of 100 mM 5-FU. Conditioned medium was collected after 24 hrs of incubation at 37° C. and stored at −20° C. TNF-α levels were determined by ELISA.
(§7) PC-3 and PROb cells were plated and infected with Ad.Egr-TNF.11D as above. Prior to the addition of chemotherapeutic agents (cisplatin, doxorubicin, 5-FU, gemcitabine and paclitaxel), 20 mM NAC in 0.1 ml complete medium was added to each well. Conditioned medium was collected after 24 hrs. of incubation at 37° C., and stored at −20° C. TNF-α levels were determined by ELISA.

PROb cells [12] = assay: N-acetyl cysteine effects on TNF-α production in vitro, PROb cells; format: cell-based, rat
Protocol: as §6, §7

Egr-1 promoter [13] = assay: In vitro luciferase reporter assay, PROb cells; format: cell-based, rat
Protocol: (§8) In vitro luciferase reporter assay. […] JM109 competent cells (Stratagene, La Jolla, Calif.) were transformed with these plasmids, endotoxin-free maxipreps (Qiagen, Valencia, Calif.) were prepared, and product confirmation was performed by PCR, sequencing, enzyme restriction, and gel electrophoresis.
(§9) All groups were co-transfected with the Renilla luciferase reporter plasmid construct pRL-TK (HSV thymidine kinase promoter) to normalize for transfection efficiency. […] Cells were harvested 6 hrs later, and luciferase activity was measured using the Dual-Luciferase reporter assay system (Promega).

PROb xenografts [14] = assay: In vivo regrowth study, PROb xenografts; design: species or system athymic nude mice; settings: IT vector 2×10^8 p.u., IP cisplatin 3 mg/kg, 4 daily injections, cisplatin line = with null vector
Protocol: (§10) In vivo regrowth studies. Seg-1 or PROb cells (5×10^6/0.1 ml) were injected in the right hind limb of nude mice. […] IP NS or cisplatin injections were given following the IT vector injection, and 4 consecutive daily IT and IP injections were given. Xenografts were measured every 2 days using calipers and tumor volume was calculated (length×width×thickness)/2. Fractional tumor volumes (V/Vo, Vo=day 0 volume) were calculated and plotted.

Egr-1 promoter [15] = assay: In vitro luciferase reporter assay, Seg-1 cells; format: cell-based, human
Protocol: as §8, §9

Seg-1 xenografts = assay: In vivo regrowth study, Seg-1 xenografts; design: species or system athymic nude mice; settings: IT vector 2×10^8 p.u., IP cisplatin 3 mg/kg, 4 daily injections, cisplatin line = with null vector
Protocol: as §10

[16] = higher concentration: cisplatin 460 μM, doxorubicin 300 μM, 5-FU 200 mM, taxol 140 μM
[17] = lower concentration: cisplatin 46 μM, doxorubicin 3 μM, 5-FU 2 mM, taxol 1.4 μM
[18] = vector-infected PROb cells, 24 hrs, cisplatin 250 μM, doxorubicin 3 μM, 5-FU 100 mM, gemcitabine 3 mM, paclitaxel 14 μM
[19] = vector-infected PC-3 cells, 24 hrs, cisplatin 250 μM, 5-FU 100 mM, gemcitabine 3 mM, paclitaxel 14 μM

| Compound | increased TNF levels (PC-3 cells [1]) | increase in TNF-α levels (PC-3 xenografts [2]) | surviving fraction (PC-3 cells [3]; [16]) | surviving fraction (PC-3 cells [3]; [17]) | increase in TNF-α levels (PROb cells [4]; [18]) | induced TNF-α (PC-3 xenografts [5]) | increased TNF-α levels (PROb xenografts [6]) | induction of TNF-α protein (PROb xenografts [7]) | surviving fraction (PROb cells [8]; [16]) | surviving fraction (PROb cells [8]; [17]) | increased TNF levels (PROb cells [9]) | increase in TNF-α levels (PC-3 cells [10]; [19]) | other results |
| --- | --- | --- | --- | --- | --- | --- | --- | --- | --- | --- | --- | --- | --- |
| O=c1[nH]cc(F)c(=O)[nH]1 [5-FU, 5-fluorouracil] | 1.8 fold | 4.4 fold | 20% | 80% | 1.7 fold | 4.2 fold | 1.9 fold | 1.9 fold | 38% | 69% | 2.3 fold | 67.4 fold | – |
| Gemcitabine diphosphate | – | 3.1 fold | – | – | 3.5 fold | – | 1.8 fold | 2.5 fold | – | – | 5.4 fold | 2.7 fold | – |
| CC(=O)N[C@@H](CS)C(=O)O [NAC, N-Acetylcysteine] | – | – | – | – | – | – | – | – | – | – | – | – | effect on concentration of TNF-α protein (PC-3 cells [11]; Ad.Egr-TNF.11D transduced PC-3 cells treated with cisplatin, 5-FU, gemcitabine and paclitaxel, 20 mM NAC): significantly decreased the concentration of TNF-α protein; effect on concentration of TNF-α protein (PC-3 cells [11]; PC-3 cells infected with Ad.Egr-TNF.11D and treated with 100 mM 5-FU, NAC 10 mM to 30 mM): decrease the concentration of TNF-α protein; effect on induction of TNF-α (PROb cells [12]; PROb cells treated with cisplatin, 5-FU, gemcitabine or paclitaxel (data not shown)): significantly reduced the induction of TNF-α; effect on induction of TNF-α (PROb cells [12]; PROb cells, 3 μM doxorubicin, 20 mM NAC): significantly reduced the induction of TNF-α |
| O=P1(N(CCCl)CCCl)NCCCO1 (centres unmarked) [cyclophosphamide, Cyclophosphamide] | – | 4.4 fold | – | – | – | 4.4 fold | 2.8 fold | 3.0 fold | – | – | – | – | – |
| CC(=O)O[C@H]1C(=O)[C@@]2(C)[C@H]([C@H](OC(=O)c3ccccc3)[C@]3(O)C[C@H](OC(=O)[C@H](O)[C@@H](NC(=O)c4ccccc4)c4ccccc4)C(C)=C1C3(C)C)[C@]1(OC(C)=O)CO[C@@H]1C[C@@H]2O [paclitaxel, Paclitaxel] | 1.8 fold | – | 10% | 80% | 4.5 fold | – | – | – | 8% | 85% | 3.0 fold | 1.7 fold | systemic toxicity (PROb xenografts [7]; mouse, in vivo): severe systemic toxicity |
| N.N.[Cl][Pt][Cl] [cisplatin] | 6.5 fold | 3.1 fold | 60% | 90% | – | 3.5 fold | 1.9 fold | 2.6 fold | 77% | 77% | 1.6 fold | – | LA (Egr-1 promoter [13]; PROb cells transfected with pGL3 425, 50 μM cisplatin): 49.40; increase in LA (Egr-1 promoter [13]; PROb cells transfected with pGL3 425, 50 μM cisplatin vs untreated control): 3.6 fold; tumor regression (PROb xenografts [14]): moderate tumor regression; LA (Egr-1 promoter [15]; Seg-1 cells transfected with pGL3 425, 50 μM cisplatin): 2.89; increase in LA (Egr-1 promoter [15]; Seg-1 cells transfected with pGL3 425, 50 μM cisplatin vs untreated control): 2.0 fold; tumor regression (Seg-1 xenografts): moderate tumor regression; increase in TNF-α levels (PROb cells [4]): 1.3 fold; increase in TNF-α levels (PC-3 cells [10]): 3.8 fold |
